Assay results reported in patent US20260240815A1, “POTENT TRANSTHYRETIN (TTR) STABILIZATION IN TTR AMYLOIDOSIS PATIENTS RECEIVING ACORAMIDIS” (EIDOS THERAPEUTICS, INC., priority 2023, published 2026).
Where “and” joins values, the source holds several entries; their conditions need not be identical. Equal values may be shown once.

Assays:
[1] = test system: TTR variants (TTRv); assay: Fluorescent probe exclusion (FPE), mean of all variant patient samples; type: binding, human
Protocol: (§1) Occupancy of AG10 in the thyroxine binding pocket of tetrameric TTR is determined by the ability of a fluorescent probe (Probe) to covalently bind to free tetrameric TTR binding sites in serum over a 6 hr reaction time. The fluorescent probe only fluoresces upon covalently binding to the ligand binding site of TTR.
(§2) Aliquots of each serum sample are plated in 96 well plates. The fluorescence changes (λex=328 nm and λcm=384 nm) after addition of probe are monitored every 15 min using a fluorescent capable microplate for 6 hr at RT.
(§3) Methods: Two established assays assessed TTR stabilization: fluorescent probe exclusion (FPE; measures binding site occupancy), and Western blot (WB; quantifies tetrameric TTR persistence under conditions of accelerated dissociation). Examples of each assay are provided above. Over 60 individual patient samples representing 18 unique TTRv across a spectrum of intrinsic instability and clinical phenotypes were assayed. Acoramidis was added at […], the target clinical steady-sate trough concentration is 8-10 μM, and compared to Tafamidis added at its clinical peak (26 μM) and trough (16 μM) concentrations reported for its maximal approved dose.

[2] = molecular target: T1, TTR G6S (Homo sapiens, UniProt P02766, G26S); assay: Fluorescent probe exclusion (FPE), G6S patient serum; type: binding
T1 construct: from tissue; host or cells: patient blood plasma (Western blot) / serum (FPE)
Protocol: as §1, §2, §3

[3] = reported for maximal approved dose; cited from earlier work
[4] = molecular target: T2, tetrameric TTR V122I (Homo sapiens, UniProt P02766, V142I); assay: Western blot stabilization of tetrameric TTR, V122I patient sample; type: biochemical; conditions: V122I
T2 construct: from tissue; host or cells: patient blood plasma (Western blot) / serum (FPE)
Protocol: (§4) Stabilization of the tetramer of TTR by AG10 is determined by comparing the amount of tetrameric TTR protein remaining after acid denaturation for 72 hr to the initial amount of tetrameric TTR protein as determined by densitometric measurement of western blot gels.
(§5) Blood plasma samples from the subject are diluted with acidification buffer (sodium acetate, KCl, EDTA, DTT, pH about 4.0) for both the 0 and 72 hour time point. Time 0 hr samples are directly cross-linked with glutaraldehyde, and then quenched. 72 hr samples are incubated at room temperature for 72 hr and then cross-linked and quenched by the same protocol. All samples are then denatured by adding SDS gel loading buffer and boiled prior to gel loading. Each sample is separated in SDS-PAGE gels and analyzed by immunoblotting using anti-TTR antiserum (Polyclonal Rabbit Anti-Human Prealbumin. DAKO Cat #A0002). The density of all TTR bands are quantified using infrared LICOR imaging system or Fluorescence Imaging system and reported.
as §3

[5] = molecular target: T3, tetrameric TTR E92Q (Homo sapiens, UniProt P02766, E112Q); assay: Western blot stabilization of tetrameric TTR, E92Q patient sample; type: biochemical
T3 construct: from tissue; host or cells: patient blood plasma (Western blot) / serum (FPE)
Protocol: as §4, §5, §3

[6] = test system: TTR; assay: Phase 3 ATTRibute-CM, ex vivo WB and FPE TTR stabilization; type: in vivo, human; conditions: patients receiving Acoramidis, month 30
From the text: Note: variant=mutant TTR genotype. Participants in ATTRibute-CM had the option for concomitant tafamidis use on top of blinded acoramidis or placebo in the study.
Note: variant=mutant TTR genotype. The Acoramidis+Tafamidis columns show data from patients receiving both compounds.

[7] = molecular target: T4, tetrameric TTR A25S (Homo sapiens, UniProt P02766, A45S); assay: Western blot stabilization of tetrameric TTR, A25S patient sample; type: biochemical
T4 construct: from tissue; host or cells: patient blood plasma
Protocol: as §4, §5, §3

[8] = molecular target: T5, tetrameric TTR V30M (Homo sapiens, UniProt P02766, V50M); assay: Western blot stabilization of tetrameric TTR, V30M patient sample; type: biochemical
T5 construct: from tissue; host or cells: patient blood plasma (Western blot) / serum (FPE)
Protocol: as §4, §5, §3

[9] = molecular target: T6, tetrameric TTR T60A (Homo sapiens, UniProt P02766, T80A); assay: Western blot stabilization of tetrameric TTR, T60A patient sample; type: biochemical
T6 construct: from tissue; host or cells: patient blood plasma (Western blot) / serum (FPE)
Protocol: as §4, §5, §3

[10] = molecular target: T7, tetrameric TTR A36D (Homo sapiens, UniProt P02766, A56D); assay: Western blot stabilization of tetrameric TTR, A36D patient sample; type: biochemical
T7 construct: from tissue; host or cells: patient blood plasma
Protocol: as §4, §5, §3

[11] = molecular target: T8, tetrameric TTR I68L (Homo sapiens, UniProt P02766, I88L); assay: Western blot stabilization of tetrameric TTR, I68L patient sample; type: biochemical
T8 construct: from tissue; host or cells: patient blood plasma (Western blot) / serum (FPE)
Protocol: as §4, §5, §3

[12] = molecular target: T9, TTR V122I (Homo sapiens, UniProt P02766, V142I); assay: Fluorescent probe exclusion (FPE), V122I patient serum; type: binding
T9 construct: from tissue; host or cells: patient blood plasma (Western blot) / serum (FPE)
Protocol: as §1, §2, §3

[13] = molecular target: T10, tetrameric TTR V94L (Homo sapiens, UniProt P02766, V114L); assay: Western blot stabilization of tetrameric TTR, V94L patient sample; type: biochemical
T10 construct: from tissue; host or cells: patient blood plasma (Western blot) / serum (FPE)
Protocol: as §4, §5, §3

[14] = test system: tetrameric TTR variants (TTRv); assay: Western blot stabilization of tetrameric TTR, mean of all variant patient samples; type: biochemical, human; conditions: N=53, 16 μM (clinical trough)
Protocol: as §4, §5, §3

SMILES: O=C(O)c1ccc2nc(-c3cc(Cl)cc(Cl)c3)oc2c1 [Tafamidis, 2-(3,5-dichlorophenyl)-1,3-benzoxazole-6-carboxylic acid]
- FPE Mean % Stabilization (SD) ([1]; N=41, 16 μM (clinical trough)): 71±14% and 71.26 (13.58) %
- FPE Mean % Stabilization (SD) ([1]; N=41, 26 μM (clinical peak)): 87±14% and 86.54 (13.51) %
- FPE Mean % Stabilization (SD) ([2]; N=2, 16 μM): 61.96 (6.12) %
- FPE Mean % Stabilization (SD) ([2]; N=2, 26 μM): 80.02 (5.99) %
- clinical peak concentration [3]: 26 µM
- clinical trough concentration [3]: 16 µM
- WB Mean % Stabilization (SD) ([4]; N=33, 16 μM): 33.93 (13.39) %
- WB Mean % Stabilization (SD) ([4]; N=33, 26 μM): 45.73 (14.13) %
- WB Mean % Stabilization (SD) ([5]; N=1, 16 μM): 38.49%
- WB Mean % Stabilization (SD) ([5]; N=1, 26 μM): 62.76%
- effect of added Tafamidis on TTR stabilization [6]: does not increase TTR stabilization
- WB Mean % Stabilization (SD) ([7]; N=1, 16 μM): 46.47%
- WB Mean % Stabilization (SD) ([7]; N=1, 26 μM): 68.06%
- WB Mean % Stabilization (SD) ([8]; N=1, 16 μM): 37.47%
- WB Mean % Stabilization (SD) ([8]; N=1, 26 μM): 66.51%
- WB Mean % Stabilization (SD) ([9]; N=3, 16 μM): 33.44 (1.60) %
- WB Mean % Stabilization (SD) ([9]; N=3, 26 μM): 49.64 (8.33) %
- WB Mean % Stabilization (SD) ([10]; N=1, 16 μM): 66.29%
- WB Mean % Stabilization (SD) ([10]; N=1, 26 μM): 79.70%
- WB Mean % Stabilization (SD) ([11]; N=7, 16 μM): 39.34 (8.59) %
- WB Mean % Stabilization (SD) ([11]; N=7, 26 μM): 51.6 (8.00) %
- FPE Mean % Stabilization (SD) ([12]; N=24, 16 μM): 76.54 (14.83) %
- FPE Mean % Stabilization (SD) ([12]; N=24, 26 μM): 91.62 (15.18) %
- WB Mean % Stabilization (SD) ([13]; N=1, 16 μM): 64.19%
- WB Mean % Stabilization (SD) ([13]; N=1, 26 μM): 67.37%
- WB Mean % Stabilization (SD) [14]: 36±13% and 36.34 (12.88) %
